{
  "source": "patent US6903079B2",
  "about": "“Nucleoside compounds and compositions thereof” (Inotek Pharmaceuticals Corporation, priority 2000, dated 2005)",
  "key": {"[1]": {"tested_on": "rat model of middle cerebral artery occlusion/reperfusion", "experiment": "Middle cerebral artery occlusion/reperfusion", "format": "in vivo", "settings": "2 h occlusion, 24 h reperfusion, 10 mg/kg i.v. then 10 mg/kg/h, tetrazolium staining", "description": "Occlusion lasted for 2 hours, followed by reperfusion for 24 hours. Infarct size was quantified with tetrazolium staining and survival and neurological scores were monitored. The compounds were administered at 10 mg/kg i.v. 5 min before the start of reperfusion in one group, and continued at a rate of 10 mg/kg/h infusion during the reperfusion. Vehicle-treated animals (control) developed a >50% mortality over 24 hours, whereas <10% of the animals died in the drug treated groups. The compounds tested reduced the size of brain infarction by 64±2 and 57±3%, respectively."}, "[2]": {"tested_on": "endotoxin-induced lethality in a mouse model", "experiment": "Endotoxin-induced lethality (systemic inflammation)", "format": "in vivo", "description": "The compounds were given as oral gavage at 10 mg/kg, twice a day."}, "[3]": {"target": "PARS (Mus musculus, UniProt P11103)", "sequence (P11103 whole entry)": "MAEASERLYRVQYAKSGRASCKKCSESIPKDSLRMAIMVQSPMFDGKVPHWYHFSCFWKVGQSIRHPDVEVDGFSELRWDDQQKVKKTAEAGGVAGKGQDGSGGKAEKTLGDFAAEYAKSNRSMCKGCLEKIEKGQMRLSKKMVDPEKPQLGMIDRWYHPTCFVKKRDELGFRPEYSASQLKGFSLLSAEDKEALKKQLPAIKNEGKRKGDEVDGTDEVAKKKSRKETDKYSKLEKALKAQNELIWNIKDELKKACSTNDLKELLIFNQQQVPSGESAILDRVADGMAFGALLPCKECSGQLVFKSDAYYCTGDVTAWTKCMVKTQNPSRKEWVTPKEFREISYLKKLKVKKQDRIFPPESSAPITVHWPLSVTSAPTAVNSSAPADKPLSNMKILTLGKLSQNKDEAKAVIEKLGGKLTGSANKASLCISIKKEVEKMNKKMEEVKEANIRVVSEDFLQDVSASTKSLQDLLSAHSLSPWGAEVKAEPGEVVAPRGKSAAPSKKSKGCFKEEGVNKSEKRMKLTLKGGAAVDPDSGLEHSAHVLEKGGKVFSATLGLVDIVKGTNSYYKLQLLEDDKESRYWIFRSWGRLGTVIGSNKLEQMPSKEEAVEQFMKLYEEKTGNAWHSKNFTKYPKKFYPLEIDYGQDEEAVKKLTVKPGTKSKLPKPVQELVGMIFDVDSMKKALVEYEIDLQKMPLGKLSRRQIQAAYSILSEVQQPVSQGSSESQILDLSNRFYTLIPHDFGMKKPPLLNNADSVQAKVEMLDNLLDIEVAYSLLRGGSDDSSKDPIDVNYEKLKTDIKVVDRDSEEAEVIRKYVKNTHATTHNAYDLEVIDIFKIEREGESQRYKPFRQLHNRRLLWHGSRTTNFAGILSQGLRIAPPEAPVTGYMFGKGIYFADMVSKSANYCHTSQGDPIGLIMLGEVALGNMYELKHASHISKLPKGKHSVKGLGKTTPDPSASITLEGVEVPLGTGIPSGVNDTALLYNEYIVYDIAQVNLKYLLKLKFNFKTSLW", "experiment": "PARS inhibition by nucleoside derivatives (in vitro inflammation models)", "format": "cell-based", "source_text": "For example, conjugates of adenosine derivatives were investigated for PARS inhibition."}, "[4]": {"tested_on": "mouse model of gut ischemia-reperfusion", "experiment": "Gut ischemia-reperfusion by ligation and release of superior mesenteric artery; FD4 gut permeability in everted gut sacks", "settings": "10 mg/kg i.v. 10 min prior to reperfusion", "quoted_text": "In order to examine the efficacy of the compounds of the invention in ischemia-reperfusion conditions, the effect of selected compounds in a local model of reperfusion injury was examined. […] The artery was occluded for 45 min, followed by reperfusion for 1 h. Following the end of the reperfusion, gut permeability was measured with the fluorescein isothiocyanate-conjugated dextran (FD4) method in everted gut sacks.\nThe artery was occluded for 45 min, followed by reperfusion for 1 h. Following the end of the reperfusion, gut permeability was measured with the FD4 method in everted gut sacks."}, "[5]": {"tested_on": "myocardial ischemia-reperfusion in Male Wistar rats", "experiment": "Myocardial infarction by left anterior descending coronary artery occlusion/reperfusion", "format": "in vivo", "settings": "rat; 20 mg/kg i.v. 10 min before reperfusion; 1 h ischemia, 2 h reperfusion", "description": "In another set of experiments, Male Wistar rats were anesthetized with thiopentone sodium (60 mg/kg, i.p.) and were subjected to myocardial infarction. The chest was opened at the fourth intercostal space and a 5.0 silk ligature was placed around the left anterior descending coronary artery for occlusion. Next, one hour of myocardial ischemia was performed, followed by 2 h reperfusion. Myocardial infarct size was quantified by tetrazolium staining."}},
  "data": [
    {"smiles": "Nc1ncnc2c1ncn2C1OC(C(=O)N2CCN(CC(=O)Nc3cccc4c3CNC4=O)CC2)C(O)C1O", "note": "(stereo not shown) [Compound 130]", "values": [
      {"measurement": "reduction of the size of brain infarction", "setting": "[1]", "value": "57±3", "unit": "%"},
      {"measurement": "protection against endotoxin-induced lethality", "setting": "[2]", "value": "protected against endotoxin-induced lethality"},
      {"measurement": "PARS inhibitory activity (in words)", "setting": "[3]", "value": "most potent"},
      {"measurement": "inhibition at 10 µM", "setting": "[3]; 10 μM, values marked *, asterisk not explained, read-out: Inhibition at 10 μM (values marked *)", "value": 97, "unit": "%"},
      {"measurement": "Inhibition at 200 nm", "setting": "[3]; 200 nm, printed in the 100 μM column", "value": 100, "unit": "at 200 nm"},
      {"measurement": "reduction of the increase in the permeability of the gut", "setting": "[4]", "value": 74, "unit": "%"},
      {"measurement": "reduction of myocardial infarct size", "setting": "[5]", "value": "35±7", "unit": "%"}
    ]}
  ]
}
